Literature values in patent publication US20020032188A1, “Compositions and methods for treatment of anal fissure” (priority 2000, published 2002).

Details: topical ISDN

Compound: O=[N+]([O-])O[C@H]1CO[C@H]2[C@@H]1OC[C@H]2O[N+](=O)[O-] [ISDN, isosorbide dinitrate]
- treatment of chronic anal fissure, result reported: effective treatment for chronic anal fissure
